16 molecules from US20260070902A1, “SULFONYL DERIVATIVES AS CCR6 INHIBITORS” (Hoffmann-La Roche Inc., priority 2022, published 2026) can be followed below.

pIC50: −log10 of the molar value.

Common to all, as to type: cell-based
For assay [1], the system named is Human CD4+ T cells. As to the kind of experiment: CD4+ T cells chemotaxis assay towards CCL20. The note with it: Homo sapiens, CD4+ T cell, 3 h, relative -Log IC50, human CD4+ T cells stimulated with anti-CD3 and anti-CD28, migration towards 150 ng/ml CCL20. An excerpt: CD4+ T Cells Chemotaxis Assay Towards CCL20
Human CD4+ T cells were isolated from buffy coats of healthy donors using a CD4+ T Cell Isolation Kit (Miltenyi Biotec130-096-533). Isolated T cells were stimulated overnight with anti-CD3 and anti-CD28 antibodies (Biolegend 300314/302934) in growth medium (RPMI1640, 10% heat-inactivated FBS, 1× pen/strep (Gibco 15140)). For the chemotaxis assay, Corning Transwell plates were used with a pore size of 5 m (Corning 3388). T cells were counted and diluted to 6*10^6 cells/ml in chemotaxis medium (RPMI1640, 1% BSA, pen/strep). Compounds were four-fold serially diluted in DMSO. Further dilutions were made in chemotaxis medium. Cells were incubated with test compounds for 30 min at 37° C. prior to initiation of the assay (3*10^6 cells/ml). Final DMSO concentration in the assay was 0.2%. Wells of the Transwell plates were filled with 200 μl chemotaxis medium containing 150 ng/ml CCL20 (R&D systems 360-MP). 50 μl of the cell/compound suspension was added to the inserts of the Transwell plates (150,000 cells/insert). The Transwell plates were placed in an incubator at 37° C., 5% CO2 for 3 h. After 3 h, the number of migrated cells was quantified using CellTiter Glo (Promega). Percentage inhibition values were calculated based on the low and high signal obtained with 0.2% DMSO in chemotaxis medium without and with CCL20, respectively. The relative −Log IC50 was determined with GraphPad Prism 9 using a four-parameter dose-response model.

The target of assay [2] is T1, human CCR6 (Homo sapiens, UniProt P51684).
T1 sequence (P51684 1-374): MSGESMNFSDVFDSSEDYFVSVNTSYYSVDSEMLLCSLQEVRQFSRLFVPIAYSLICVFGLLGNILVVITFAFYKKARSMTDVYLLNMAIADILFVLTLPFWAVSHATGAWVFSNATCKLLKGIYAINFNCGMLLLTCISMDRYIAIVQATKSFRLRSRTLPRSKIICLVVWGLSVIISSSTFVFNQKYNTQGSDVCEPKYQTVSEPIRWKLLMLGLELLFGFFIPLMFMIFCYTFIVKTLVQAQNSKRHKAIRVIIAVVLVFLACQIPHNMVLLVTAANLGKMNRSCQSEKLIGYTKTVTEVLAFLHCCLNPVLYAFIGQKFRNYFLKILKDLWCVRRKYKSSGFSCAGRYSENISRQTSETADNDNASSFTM
Kind of assay: Human CCR6-CRE reporter assay. The note with it: relative -Log IC50; 293FT cells transfected with human CCR6 and CRE-luciferase reporter; 6 μM Forskolin, 6 nM CCL20; 5 h. The arrangement: The second construct contained the open reading frame of human CCR6 in the pUNO1 backbone; host or cells: 293FT cells. An outline of the steps:
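293FT cells transiently co-transfected with human CCR6 and a CRE-luc2P reporter, used 48 h later. Compounds incubated with cells in medium containing 6 μM Forskolin and 6 nM CCL20 (assay-medium levels), 0.1% DMSO final, 5 h at 37° C; luminescence read, relative −Log IC50 from four-parameter fit.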
A general note: Reporter assays use an easily measured gene product as a stand-in for the process of interest.

Assay [3] has as its target T1, human CCR6. As to the kind of experiment: CHO-K1 CCR6 chemotaxis assay towards CCL20. To be noted: relative -Log IC50; CHO-K1 cells overexpressing human CCR6; migration towards 100 ng/ml CCL20; 4 h. An outline of the steps:
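Human CCR6-overexpressing CHO-K1 cells (2*10^6 cells/ml) were preincubated 30 min at 37 °C with compound (0.2% DMSO), then allowed to migrate 4 h through 8 µm Transwell pores toward 100 ng/ml CCL20. Migrated cells were counted by CellTiter Glo. −Log IC50 came from four-parameter fits normalised to DMSO without/with CCL20.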

For the molecule `NC(=O)c1cc(-c2ccc(S(=O)(=O)[C@H]3CC[C@H](Nc4ccc(S(F)(F)(F)(F)F)cc4)CC3)cc2)ccn1` [Example 10, 4-(4-{[trans-4-{[4-(pentafluoro-λ^6-sulfanyl)phenyl]Amino}cyclohexyl]sulfonyl}phenyl)pyridine-2-carboxamide], the results for the negative logarithm of the IC50 (pIC50) in assay [1], in assay [2] and in assay [3] were 8.70, 7.10 and 8.30, respectively.
For `Cc1nnc2ccc(-c3ccc(S(=O)(=O)[C@H]4CC[C@H](Nc5ccc(S(F)(F)(F)(F)F)cc5)CC4)cc3)cn12` [Example 11, 4-(pentafluoro-λ^6-sulfanyl)-N-[trans-4-(4-{3-methyl-[1,2,4]triazolo[4,3-a]pyridin-6-yl}benzenesulfonyl)cyclohexyl]aniline], in that order: 8.40, 7.00 and 7.60.
For `O=S(=O)(c1ccc(-c2ccc3nccn3c2)cc1)[C@H]1CC[C@@H](Nc2ccc(S(F)(F)(F)(F)F)cc2)CC1` [Example 18, 4-(pentafluoro-λ^6-sulfanyl)-N-[cis-4-(4-{imidazo[1,2-a]pyridin-6-yl}benzenesulfonyl)cyclohexyl]aniline], in that order: 8.20, 6.80 and 6.70.
Taken in the same sequence, the figures for `CN(C)C(=O)c1ccc(-c2ccc(S(=O)(=O)[C@H]3CC[C@H](Nc4ccc(S(F)(F)(F)(F)F)cc4)CC3)cc2)cn1` [Example 20, N,N-dimethyl-5-(4-{[trans-4-{[4-(pentafluoro-λ^6-sulfanyl)phenyl]Amino}cyclohexyl]sulfonyl}phenyl)pyridine-2-carboxamide] were 7.50, 7.00 and 6.40.
For `NC(=O)c1nnc2ccc(-c3ccc(S(=O)(=O)N4CCC(Nc5ccc(S(F)(F)(F)(F)F)cc5)CC4)cc3)cn12` [Example 26, 6-{4-[(4-{[4-(pentafluoro-λ^6-sulfanyl)phenyl]Amino}piperidin-1-yl)sulfonyl]phenyl}-[1,2,4]triazolo[4,3-a]pyridine-3-carboxamide], the pIC50 – broadly, the negative decadic logarithm of the IC50, by convention in mol/L – in assay [1] is 7.80; in assay [2], 7.30; in assay [3], 7.00.
For `Cc1nnc2ccc(-c3ccc(S(=O)(=O)N4CCC(Nc5ccc(S(F)(F)(F)(F)F)cc5)CC4)cc3)cn12` [Example 27, 1-(4-{3-methyl-[1,2,4]triazolo[4,3-a]pyridin-6-yl}benzenesulfonyl)-N-[4-(pentafluoro-λ^6-sulfanyl)phenyl]piperidin-4-amine], in that order: 8.30, 7.20 and 7.20.
In the case of `NC(=O)c1cnc2ccc(-c3ccc(S(=O)(=O)[C@H]4CC[C@H](Nc5ccc(S(F)(F)(F)(F)F)cc5)CC4)cc3)cn12` [Example 34, 6-(4-{[trans-4-{[4-(pentafluoro-λ^6-sulfanyl)phenyl]Amino}cyclohexyl]sulfonyl}phenyl)imidazo[1,2-a]pyridine-3-carboxamide], the pIC50 was 7.20 in assay [1], 6.70 in assay [2] and 7.40 in assay [3].
For `CC(C)c1nnc2ccc(-c3ccc(S(=O)(=O)[C@H]4CC[C@H](Nc5ccc(S(F)(F)(F)(F)F)cc5)CC4)cc3)cn12` [Example 35, 4-(pentafluoro-λ^6-sulfanyl)-N-[trans-4-{4-[3-(propan-2-yl)-[1,2,4]triazolo[4,3-a]pyridin-6-yl]benzenesulfonyl}cyclohexyl]aniline], in that order: 9.30, 7.10 and 8.40.
With `Cc1nc2cc(-c3ccc(S(=O)(=O)[C@H]4CC[C@H](Nc5ccc(S(F)(F)(F)(F)F)cc5)CC4)cc3)ccn2n1` [Example 41, 4-(pentafluoro-λ^6-sulfanyl)-N-[trans-4-(4-{2-methyl-[1,2,4]triazolo[1,5-a]pyridin-7-yl}benzenesulfonyl)cyclohexyl]aniline], the pIC50 in assay [1] is 8.30; in assay [2], 6.80; in assay [3], 7.10.
Regarding `CC(C)c1nnc2ccc(-c3ccc(S(=O)(=O)[C@H]4CC[C@H](Nc5ccc(S(F)(F)(F)(F)F)cc5)CC4)cc3)nn12` [Example 50, 4-(pentafluoro-λ^6-sulfanyl)-N-[trans-4-{4-[3-(propan-2-yl)-[1,2,4]triazolo[4,3-b]pyridazin-6-yl]benzenesulfonyl}cyclohexyl]aniline], the negative-log IC50 (pIC50) in assay [1] was 7.60; in assay [2], 6.90; in assay [3] it was 7.00.
For `CC(C)c1nnc2cnc(-c3ccc(S(=O)(=O)[C@H]4CC[C@H](Nc5ccc(S(F)(F)(F)(F)F)cc5)CC4)cc3)cn12` [Example 51, 4-(pentafluoro-λ^6-sulfanyl)-N-[trans-4-{4-[3-(propan-2-yl)-[1,2,4]triazolo[4,3-a]pyrazin-6-yl]benzenesulfonyl}cyclohexyl]aniline], the pIC50 in assay [1] is 8.70; in assay [2], 7.20; in assay [3] it was 8.10.
As to `N#Cc1c[nH]c2ccc(-c3ccc(S(=N)(=O)[C@H]4CC[C@H](Nc5ccc(S(F)(F)(F)(F)F)cc5)CC4)cc3)cc12` (stereo partly drawn) [Example 85, 5-(4-{[trans-4-{[4-(pentafluoro-λ^6-sulfanyl)phenyl]Amino}cyclohexyl]sulfonimidoyl}phenyl)-1H-indole-3-carbonitrile], the pIC50 is 7.60 in assay [1], 7.00 in assay [2] and 6.90 in assay [3].
In the case of `Cc1n[nH]c2ccc(-c3ccc(S(=N)(=O)[C@H]4CC[C@H](Nc5ccc(S(F)(F)(F)(F)F)cc5)CC4)cc3)cc12` (stereo partly drawn) [Example 86, [4-(3-methyl-1H-indazol-5-yl)phenyl][trans-4-{[4-(pentafluoro-λ^6-sulfanyl)phenyl]Amino}cyclohexyl](imino)-λ^6-sulfanone], the results for the pIC50 in assay [1], in assay [2] and in assay [3] were 7.10, 6.90 and 7.10, respectively.
Take `N=S(=O)(c1ccc(-c2ccc3nccn3c2)cc1)[C@H]1CC[C@H](Nc2ccc(S(F)(F)(F)(F)F)cc2)CC1` (stereo partly drawn) [Example 87, (4-{imidazo[1,2-a]pyridin-6-yl}phenyl)[trans-4-{[4-(pentafluoro-λ^6-sulfanyl)phenyl]Amino}cyclohexyl](imino)-λ^6-sulfanone]: the negative logarithm of the IC50 (pIC50) in assay [1] is 6.80; in assay [2] it was 6.70; in assay [3], 6.90.
Consider `Cc1cnc2ccc(-c3ccc(S(=N)(=O)[C@H]4CC[C@H](Nc5ccc(S(F)(F)(F)(F)F)cc5)CC4)cc3)cn12` (stereo partly drawn) [Example 89, (4-{3-methylimidazo[1,2-a]pyridin-6-yl}phenyl)[trans-4-{[4-(pentafluoro-λ^6-sulfanyl)phenyl]Amino}cyclohexyl](imino)-λ^6-sulfanone], for which the figures for the pIC50 in assay [1], in assay [2] and in assay [3] were 7.40, 6.80 and 7.10, respectively.
With `N#Cc1cnc2ccc(-c3ccc(S(=N)(=O)[C@H]4CC[C@H](Nc5ccc(S(F)(F)(F)(F)F)cc5)CC4)cc3)cn12` (stereo partly drawn) [Example 90, 6-(4-{[trans-4-{[4-(pentafluoro-λ^6-sulfanyl)phenyl]Amino}cyclohexyl]sulfonimidoyl}phenyl)imidazo[1,2-a]pyridine-3-carbonitrile], the results for the pIC50 in assay [1], in assay [2] and in assay [3] were 7.60, 6.80 and 7.20, respectively.
